Reference: patent publication US20250032581A1, “COMPOSITIONS AND ARTICLES COMPRISING AN ADNF POLYPEPTIDE” (RAMOT AT TEL-AVIV UNIVERSITY LTD., priority 2021, published 2025)

How the values were obtained:
[1] = test system: AT8 (hyperphosphorylated Tau); test: AT8 immunohistochemistry (hyperphosphorylated Tau); format: in vivo, mouse; conditions: WT males, data not shown
Description: AT8 Immunohistochemistry—experiment was performed as previously described (100). Mice were treated for 6 weeks with daily intranasal DD/NAP and were euthanized at 10.21±0.05 weeks of age.

[2] = test system: Tyr-GFP mouse model; test: Dendritic spine quantitation in Tyr-GFP mice; format: in vivo
Description: Spine quantitation—For determination of dendritic spine morphology, the Tyr-GFP mouse model was used and generated as described(12). 1.5-2-month-old Tyr-GFP-mice were treated for 9 consecutive days with either intraperitoneal NAP injection (0.4 μg/0.1 ml saline) or with 0.1 ml saline. On day 9, mice were perfused, and brains were subjected to immunohistochemistry and imaging (12).

[3] = cited from earlier work
[4] = test system: mice with the ASD-linked InsG3680 mutation (SHANK3); test: Social recognition test in the SHANK3 mouse model; format: in vivo; conditions: intranasal NAP
Description: To this end, mice with the ASD-linked InsG3680 mutation were used. Two behavioral assessments were performed on make mice: • 1) Open field behavior attesting to anxiety and depression (Open field behavioral assessment technology was previously described, e.g.); and • 2) Social recognition behavior, related to autistic traits (the social recognition test was previously described, e.g..
In the social recognition test, the results measured both time exploring and frequency exploring the mouse or cup, either directly or in the chamber where the mouse or cup only are present (FIG. 13).

[5] = test system: Tyr mice; test: Fecal microbiome real-time PCR; format: in vivo, mouse; conditions: WT mice
Description: Microbiome—Fecal samples were collected from 12.2±0.19-week-old mice. Samples were prepared and analyzed as previously described (57). Microbiome data was analyzed after applying the logarithmic transformation.

[6] = test system: differentiated N1E-115 cells expressing RFP-tagged EB3; test: Live imaging of EB3 comet-like structures (MT dynamics); format: cell-based, mouse
Description: Plasmid construction—Protein expressing plasmids were constructed as previously described based on pEGFP-C1 backbone and express full-length ADNP or the following truncated ADNP proteins: p.Glu830synfs*83, p.Lys408Valfs*31, p.Ser404* (as before). Inserts of cDNA carrying unique mutations were obtained from mRNA extracted from patient-derived lymphoblastoid cell lines and cDNA with full-length human ADNP was obtained from a control lymphoblastoid cell line with no mutation. Protein expressions were verified by fluorescent imaging and immunoblotting analysis as before.
Cell culture—Mouse neuroblastoma NIE-115 cells were maintained in Dulbecco's modified Eagle's medium, 10% fetal bovine serum, 2 mM glutamine and 100 U ml-1 penicillin, 100 mg ml-1 streptomycin (Biological Industries, Beit Haemek, Israel). The cells were incubated in 9 5% air/5% CO2 in a humidified incubator at 37° C.
Cell differentiation and co-transfection of overexpression plasmids—Cultured NIE-115 cells were plated on 35 mm dishes (81156, 60 p-Dish, Ibidi, Martinsried, Germany) at a concentration of 1.25×10^4 cells per dish and then were differentiated with reduced fetal bovine serum (2%) and DMSO (1.25%) containing medium for 5 days before transfection. 48 hrs before experiments N1E-115 cells were co-transfected with 1 μg EB3-RFP or mCherry-Tau (3R) plasmid with or without 2 μg of plasmids, coding to GFP conjugated to full-length human ADNP, or ADNP carried mutations. 1:3 ratios between total amount of transfected DNA and transfection reagent were used according to manufacture guidance (Lipofectamine2000, Thermo Fisher Scientific, Waltham, MA, USA) in all subsequent experiments.
Live Imaging—48 hrs after transfection, differentiated NIE-115 cells (expressing EB3-RFP with or without GFP-conjugated to full-length ADNP or mutated ADNP) were incubated at 37° C. with a 5% CO2/95% air mixture in a thermostatic chamber placed on the stage of a Leica TCS SP5 confocal microscope (objective 100× (PL Apo) oil immersion, NA 1.4). Time-lapse images were automatically captured 3 sec during 1 min, using the Leica LAS AF software. After imaging all samples were also treated with NAP (SEQ ID NO: 2) or SKIP (SEQ ID NO: 21) in final concentrations of 10^−12M, and after 4 hrs time-lapse imaging was done again under the same conditions. Data was collected and analyzed by Imaris software.
To evaluate the effect of ADNP truncated proteins on MT dynamics time-lapse imaging of EB3 comet-like structures formed by RFP-tagged EB3 proteins that bind to MT plus-ends was performed. Two parameters of EB3 activity were used to assess MT dynamics—track length and track speed of EB3 comets, which reflect the length of freshly growing MTs and the speed of MT assembly, respectively. Furthermore, the present inventors aimed to determine whether NAP ([…] for 4 hrs) could prevent the deleterious effect of ADNP mutations.

In the case of `CC[C@H](C)[C@H](NC(=O)[C@H](CO)NC(=O)[C@@H](NC(=O)[C@@H]1CCCN1C(=O)[C@H](C)NC(=O)[C@@H](N)CC(N)=O)C(C)C)C(=O)N1CCC[C@H]1C(=O)N[C@@H](CCC(N)=O)C(=O)O` [NAP, NAPVSIPQ], the AT8 positive cells [1] is reported as “did not display a NAP effect”, the “spine density, motor cortex” value ([2]; WT females, data not shown) is reported as “no treatment effect was found on WT females” and the “PSD95 volume in the hippocampus” value ([2]; female Tyr mice) is reported as “complete resolution upon NAP treatment”. For the same compound, the “mushroom spine density, motor cortex” value ([2]; female Tyr mice) was “NAP significantly affecting the larger, functionally stronger, mushroom shaped spines”, the “increase in spine density, motor cortex L5 layer” value ([2]; female Tyr mice, i.p. NAP, 9 days) was ~17% and the “bioavailability / cell penetration” value [3] was “bioavailable by endocytosis”. For the same compound, the “social recognition: mouse vs. cup exploration” value [4] was “normalization of behavior in the NAP-treated SHANK3 mouse model”, the “bacterial loads (EubV3, BIF, Lacto, Entero)” value [5] was “no effect on WT mice” and the “EB3 track length and speed” value ([6]; 10^−12M, 4 hrs, vs. non-treated control, no significant differences between NAP and SKIP) was “increased EB3 track length and speed”. The “EB3 comet speed and track length” value ([6]; cells expressing ADNP p.Glu830synfs*83, NAP 4 hrs) was “significantly augmented”, the “EB3 comet speed and track length” value ([6]; cells expressing ADNP p.Ser404*, NAP 4 hrs) was “significantly augmented” and the “EB3 comet track length and speed” value ([6]; cells expressing full-length ADNP, NAP 4 hrs) was “did not further influence the effect of full-length ADNP”.
